Patent publication US10570177B2, “P3 peptidylic inhibitors for treating CAG-repeat RNA toxicity in polyglutamine diseases” (The Chinese University of Hong Kong, priority 2017, dated 2020)
“Also recorded” adds a separate entry of the source. Residues, ends and D or L forms follow the SMILES beside them. *: point of attachment. Palmitoyl = CCCCCCCCCCCCCCCC(=O)*

Assays:
wild type Drosophila = test: Egg-to-adult viability test of wild-type flies; format: in vivo; conditions: 10 or 50 μM in fly food, 21.5° C.
Procedure: Eggs laid within 5 hr were collected and cultured in fly food containing 10 or 50 μM of respective peptides at 21.5° C. Viability from egg to adult was calculated as the number of adult flies collected divided by the number of eggs examined. Data are expressed as mean±S.E.M. for 3 independent experiments. NS indicates no significance.
Flies were raised at 21.5° C. on cornmeal medium supplemented with dry yeast. Fly lines bearing UAS-DsRedCAG0 and UAS-DsRedCAG100 were kind gifts of Professor Nancy Bonini (University of Pennsylvania, USA). The gmr-GAL4 fly line was obtained from Bloomington Drosophila Stock Center. For pseudopupil assay, third instar larvae were fed with various amount of respective peptides dissolved in 2% sucrose solution for 2 hr and then continued to culture in standard fly food at 21.5° C.^38. Pseudopupil assay was performed on 12 day-old adult flies as mentioned previously^39. Images were captured by SPOT Insight CCD camera controlled by the SPOT Advanced software (Diagnostic instruments Inc.). Image processing was performed using the Adobe Photoshop CS software (Adobe). Each experiment was repeated at least 3 times (n=10 fly heads), and consistent results were obtained. […] Viability from egg-to-adult was calculated as the number of adult flies collected divided by the number of eggs examined. […]

[1] = tested on: primary rat cortical neurons; test: LDH cytotoxicity in primary rat cortical neurons; format: cell-based; conditions: 0.01 nM to 1 μM, 72 hr
Procedure: A density of 5×10^5 of primary rat cortical neurons were seeded on culture dish and individually cultured in medium containing 0.01, 0.1, 1, 5, 10, 50, 100, 250, 500, 750, and 1000 nM of P3V8 peptide (transfected with DeliverX). The lactate dehydrogenase (LDH) cytotoxicity activity was measured 72 hr post-treatment. Fold change of LDH activity was normalized to untreated cells. Data are expressed as mean±S.E.M. for 3 independent experiments. NS indicates no significance.
The LDH cytotoxicity activity was measured 72 hr posttreatment. Fold change of LDH activity was normalized to untreated cells. Data are expressed as mean±S.E.M. for 3 independent experiments. NS indicates no significance.
Because of the aim to develop P3V8 into a potent inhibitor that targets RNA toxicity in degenerating cells within the nervous system, it was assessed whether P3V8 had deleterious effects on neuronal cells by determining lactate dehydrogenase release in the culturing medium of rat cortical neurons.

pre-rRNA = test: Real-time PCR of pre-rRNA level in DsRedCAG100 flies; format: in vivo, Drosophila; conditions: 1 μM
Procedure: Ribosomal RNA (rRNA) synthesis occurs within the nucleolus^15. It was previously shown that expanded CAG RNA induces nucleolar stress by preventing the nucleolar protein NCL from binding to the upstream control element of the rRNA promoter, leading to the downregulation of rRNA transcription^13. To investigate whether P3V8 suppressed neurotoxicity by alleviating expanded CAG RNA-induced nucleolar stress in vivo, the expression levels of pre-rRNA in were measured DsRedCAG100 flies treated with the peptide. […] This confirms that P3V8 subdued polyQ neurodegeneration in vivo by effective mitigation of the expanded CAG RNA-induced nucleolar stress.
RNA was extracted from cells or ten 12 day-old adult fly heads by Trizol reagent (Life Technologies), and 1 μg of purified RNA was then used for reverse-transcription using the ImPromII™ Reverse Transcription System (Promega). Random hexamer (Roche) was used as primers in reverse transcription. Taqman gene expression assays were performed on an ABI 7500 Real-time PCR system and data were analyzed as previously described^13. The following probes were used: pre-45s rRNA (Assay ID: AILJIZM), pre-rRNA (Assay ID: AIMSG5U), Drosophila GAPDH (Assay ID: Dm01841186) and human actin (Assay ID: Hs99999903_m1). Each experiment was repeated at least 3 times.

MJDCAA/G78 RNA = test: Isothermal titration calorimetry binding assay, expanded MJDCAA/G78 RNA
Procedure: (§1) To test whether P3V8 specifically targets expanded CAG RNA, ITC experiments were performed using unexpanded CAG RNA (MJDCAG27 RNA), expanded CAG RNA (MJDCAG78 RNA), and expanded CAA/G RNA (MJDCAA/G78 RNA), respectively, to investigate whether the binding of P3V8 is RNA expansion-dependent and sequence-dependent (Table 6).
(§2) Experiments were carried out using a MicroCal iTC200 isothermal titration calorimeter (GE Healthcare) at 25° C. Data were analyzed using the Origin® scientific plotting software version 7 (Microcal Software Inc.). All RNAs and peptides were dissolved in binding buffer (20 mM MOPS, pH 7.0; 300 mM NaCl) and 0.7 mM of peptide was titrated into 0.5 μM of RNA for each experiment. The concentration of RNA was estimated with appropriate extinction coefficients at 260 nm on a Nanodrop 2000 (Thermo Scientific). A reference power of 8 μcal/s was used with an initial 0.5 μl of injection of peptide followed by 2 μl for all subsequent titrations points with a 60 sec initial equilibrium delay and 150 sec pause between injections. The samples were stirred at a speed of 1000 rpm throughout the experiment. The thermal titration data were fitted to the ‘one binding site model’ to determine the dissociation constant (KD). Each experiment was repeated at least 3 times with consistent results obtained.

MJDCAG27 RNA = test: Isothermal titration calorimetry binding assay, unexpanded MJDCAG27 RNA
Procedure: as §1, §2

MJDCAG78 RNA = test: Isothermal titration calorimetry binding assay, expanded MJDCAG78 RNA; conditions: ITC at 25° C.; 0.7 mM peptide titrated into 0.5 μM MJDCAG78 RNA; one binding site model; mean ± S.E.M.
Procedure: as §2

Row | Compound | egg-to-adult viability (wild type Drosophila) | cytotoxicity (LDH release) [1] | pre-rRNA level (pre-rRNA) | Kd (MJDCAA/G78 RNA; ITC, 0.7 mM peptide into 0.5 μM MJDCAA/G78 RNA, mean ± S.E.M.) | lower affinity than for expanded CAG RNA (MJDCAA/G78 RNA; expanded CAA/G RNA vs expanded MJDCAG78 RNA) | Kd (MJDCAG27 RNA; ITC, 0.7 mM peptide into 0.5 μM MJDCAG27 RNA, mean ± S.E.M.) | lower affinity than for expanded CAG RNA (MJDCAG27 RNA; unexpanded RNA vs expanded MJDCAG78 RNA) | Kd (MJDCAG78 RNA)
1 | CCCCCCCCCCCCCCCC(=O)N[C@@H](CC(=O)O)C(=O)NCC(=O)N[C@@H](CCCCN)C(=O)N[C@@H](CO)C(=O)N[C@@H](CCCCN)C(=O)NCC(=O)N[C@H](C(=O)N[C@@H](C)C(=O)N[C@@H](Cc1ccc(O)cc1)C(=O)N[C@H](C(=O)N[C@@H](CCC(=O)O)C(=O)N[C@@H](Cc1ccccc1)C(=O)N[C@@H](CCCCN)C(N)=O)[C@@H](C)CC)[C@@H](C)CC [L1P3V8] (Palmitoyl-DGKSKGIAYIEFK-NH2) | no obvious alteration; also recorded: did not affect the viability | no cytotoxic effects; also recorded: no cytotoxicity | – | – | – | – | – | –
2 | Ac-DGKSKGIAYIEFK-NH2 [P3V8] | – | – | fully recovered to the DsRedCAG0 control level | 2940 ± 960 nM | 6-9 fold | 2190 ± 270 nM | 6-9 fold | 330 nM
